Results: patent US10266526B2, “Substituted 1,2,3-triazoles as SMYD inhibitors for treating cancer” (EPIZYME, INC., priority 2014, dated 2019)

Molecular target: SMYD2 (Homo sapiens (Human), UniProt Q9NRG4)
Test: SMYD2 biochemical assay (SMYD2 enzyme assay on peptide substrate, 3H-SAM Flashplate)
Settings: read-out: SMYD2 Biochem IC50; IC50 values are an average of n = 1 to n = 50

SMYD2, sequence (Q9NRG4 whole entry): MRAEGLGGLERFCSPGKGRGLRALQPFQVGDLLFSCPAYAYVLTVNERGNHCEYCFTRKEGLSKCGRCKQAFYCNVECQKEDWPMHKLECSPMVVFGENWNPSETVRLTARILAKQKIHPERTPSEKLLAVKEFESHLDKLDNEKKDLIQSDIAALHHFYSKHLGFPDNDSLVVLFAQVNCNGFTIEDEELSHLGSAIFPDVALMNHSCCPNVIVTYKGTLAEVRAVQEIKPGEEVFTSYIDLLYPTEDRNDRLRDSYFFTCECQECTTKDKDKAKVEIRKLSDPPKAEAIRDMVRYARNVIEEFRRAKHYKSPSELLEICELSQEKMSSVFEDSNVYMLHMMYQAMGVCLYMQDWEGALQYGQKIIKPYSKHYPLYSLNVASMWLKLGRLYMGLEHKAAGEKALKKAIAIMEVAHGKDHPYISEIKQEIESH

Row | IC50 [nM] | SMILES
1 | > 50000 | CC(c1ccc2[nH]nc(-c3ccccc3Cl)c2c1)N1CC(NC(=O)c2cn(C3CC3)nn2)C1 (stereo not drawn) [compound 920, N-(1-(1-(3-(2-chlorophenyl)-1H-indazol-5-yl)ethyl)azetidin-3-yl)-1-cyclopropyl-1H-1,2,3-triazole-4-carboxamide]
2 | 5400 | CN(C)CCCNC(=O)c1cn(C2CC2)nn1 [compound 921, 1-cyclopropyl-N-(3-(dimethylamino)propyl)-1H-1,2,3-triazole-4-carboxamide]
3 | 650 | CC(c1ccc(CNc2ccccc2)cc1)N1CC(NC(=O)c2cn(C3CC3)nn2)C1 (stereo not drawn) [compound 922, 1-cyclopropyl-N-(1-(1-(4-((phenylamino)methyl)phenyl)ethyl)azetidin-3-yl)-1H-1,2,3-triazole-4-carboxamide]
4 | 2700 | COc1ccc(C(C)N2CC(NC(=O)c3cn(C4CC4)nn3)C2)nc1 (stereo not drawn) [compound 923, 1-cyclopropyl-N-(1-(1-(5-methoxypyridin-2-yl)ethyl)azetidin-3-yl)-1H-1,2,3-triazole-4-carboxamide]
5 | 4300 | CC(c1ccc(OCC2CCNCC2)cc1)N1CC(NC(=O)c2cn(C3CC3)nn2)C1 (stereo not drawn) [compound 925, 1-cyclopropyl-N-(1-(1-(4-(piperidin-4-ylmethoxy)phenyl)ethyl)azetidin-3-yl)-1H-1,2,3-triazole-4-carboxamide]
6 | 11 | O=C(NC1CN(Cc2cnn(Cc3ccc(Cl)cc3)c2)C1)c1nc(C2CC2)c[nH]1 [compound 927, N-(1-((1-(4-chlorobenzyl)-1H-pyrazol-4-yl)methyl)azetidin-3-yl)-4-cyclopropyl-1H-imidazole-2-carboxamide]
7 | 610 | Cn1cc(COc2ccc(CN3CC(NC(=O)c4cc(C5CC5)cnn4)C3)cc2)cn1 [compound 928, 5-cyclopropyl-N-(1-(4-((1-methyl-1H-pyrazol-4-yl)methoxy)benzyl)azetidin-3-yl)pyridazine-3-carboxamide]
8 | 1.2 | O=C(NC1CN(Cc2cnn(Cc3ccc(Cl)cc3)c2)C1)c1cc(C2CC2)cnn1 [compound 929, N-(1-((1-(4-chlorobenzyl)-1H-pyrazol-4-yl)methyl)azetidin-3-yl)-5-cyclopropylpyridazine-3-carboxamide]
9 | 3.3 | O=C(NC1CN(Cc2cnn(Cc3ccc(Cl)cc3)c2)C1)c1cc(C2CC2)ccn1 [compound 930, N-(1-((1-(4-chlorobenzyl)-1H-pyrazol-4-yl)methyl)azetidin-3-yl)-4-cyclopropylpicolinamide]
10 | 11100 | O=C(NC1CN(Cc2cn(Cc3ccccc3)nn2)C1)c1cn(C2CC2)nn1 [compound 931, N-(1-((1-benzyl-1H-1,2,3-triazol-4-yl)methyl)azetidin-3-yl)-1-cyclopropyl-1H-1,2,3-triazole-4-carboxamide]
11 | 28 | COc1ccc(Cn2cc(CN3CC(NC(=O)c4cn(C5CC5)nn4)C3)cn2)cc1 [compound 932, 1-cyclopropyl-N-(1-((1-(4-methoxybenzyl)-1H-pyrazol-4-yl)methyl)azetidin-3-yl)-1H-1,2,3-triazole-4-carboxamide]
12 | 7.8 | O=C(NC1CN(Cc2cnn(Cc3ccccc3)c2)C1)c1cc(C2CC2)cnn1 [compound 933, N-(1-((1-benzyl-1H-pyrazol-4-yl)methyl)azetidin-3-yl)-5-cyclopropylpyridazine-3-carboxamide]
13 | 690 | COc1cccc(C(C)N2CC(NC(=O)c3cc(C4CC4)cnn3)C2)c1 (stereo not drawn) [compound 934, 5-cyclopropyl-N-(1-(1-(3-methoxyphenyl)ethyl)azetidin-3-yl)pyridazine-3-carboxamide]
14 | 1600 | CC(c1ccc2nn(C)cc2c1)N1CC(NC(=O)c2cn(C3CC3)nn2)C1 (stereo not drawn) [compound 935, 1-cyclopropyl-N-(1-(1-(2-methyl-2H-indazol-5-yl)ethyl)azetidin-3-yl)-1H-1,2,3-triazole-4-carboxamide]
15 | 80 | O=C(NC1CN(Cc2cnn(Cc3ccc4scnc4c3)c2)C1)c1cn(C2CC2)nn1 [compound 936, N-(1-((1-(benzo[d]thiazol-5-ylmethyl)-1H-pyrazol-4-yl)methyl)azetidin-3-yl)-1-cyclopropyl-1H-1,2,3-triazole-4-carboxamide]
